Experimental data published in patent publication US9814739B2, “2′-ethynyl nucleoside derivatives for treatment of viral infections” (priority 2012, dated 2017).
Read-outs that look alike come from different tables or passages of the source.

Experiments:
[1] = test system: GT1b HCV luciferase replicon; assay: HCV replicon antiviral EC50 assay; format: cell-based, Hepatitis C virus
[2] = in vitro; settings: for CC50: HCV GT1b CC50 (uM)
[3] = test system: Replicon cells, expressing the GT1b HCV luciferase replicon
[4] = Hepatitis C virus, GT1B, 72 h, read-out: HCV GT1b EC50 (uM)

| Structure (SMILES) | EC50 [1, 4] [µM] | CC50 [2] [µM] | EC50 ([1]; read-out: HCV GT1b EC50) [µM] | further results |
| --- | --- | --- | --- | --- |
| C#C[C@@]1(O)[C@H](O)[C@@H](COP(=O)(N[C@@H](C)C(=O)OC(C)C)Oc2ccccc2)O[C@H]1n1ccc(OC)nc1=O (single isomer, unassigned) [1.28 (peak 2)] | > 100 | > 25 | – | – |
| C#C[C@@]1(O)[C@H](O)[C@@H](COP(=O)(N[C@@H](C)C(=O)OC(CCC)CCC)Oc2ccccc2)O[C@H]1n1ccc(=O)[nH]c1=O (single isomer, unassigned) [1.34 (peak 2)] | 0.151 | > 25 | – | – |
| C#C[C@@]1(O)[C@H](O)[C@@H](COP(=O)(N[C@@H](C)C(=O)OC2CCCCC2)Oc2ccccc2)O[C@H]1n1ccc(=O)[nH]c1=O (stereo partly drawn) [Example 1.12, (2S)-cyclohexyl 2-(((((2R,3R,4R,5R)-5-(2,4-dioxo-3,4-dihydropyrimidin-1(2H)-yl)-4-ethynyl-3,4-dihydroxytetrahydrofuran-2-yl)methoxy)(phenoxy)phosphoryl)amino)propanoate] | 0.013 | > 25 | – | – |
| C#C[C@@]1(O)[C@H](O)[C@@H](COP(=O)(O)N[C@@H](C)C(=O)O)O[C@H]1n1ccc(=O)[nH]c1=O [Example 1.40, (2S)-2-(((((2R,3R,4R,5R)-5-(2,4-dioxo-3,4-dihydropyrimidin-1(2H)-yl)-4-ethynyl-3,4-dihydroxytetrahydrofuran-2-yl)methoxy)(hydroxy)phosphoryl)amino)propanoic acid] | – | > 25 | – | EC50 ([1]; Hepatitis C virus, 72 h, GT1b replicon cells, 3 days, luciferase, read-out: HCV GT1b EC50): 0.148 µM |
| C#C[C@@]1(O)[C@H](O)[C@@H](COP(=O)(N[C@@H](C)C(=O)OC2CCCC2)Oc2ccccc2)O[C@H]1n1ccc(=O)[nH]c1=O (single isomer, unassigned) [1.31 (peak 2)] | – | > 25 | 0.006 | – |
| C#C[C@@]1(O)[C@H](O)[C@@H](COP(=O)(N[C@@H](CCC)C(=O)OC(C)C)Oc2ccccc2)O[C@H]1n1ccc(=O)[nH]c1=O (single isomer, unassigned) [1.24 (peak 2)] | – | > 25 | 0.062 | – |
| C#C[C@@]1(O)[C@H](O)[C@@H](COP(=O)(NCCOC(=O)c2ccccc2)Oc2ccccc2)O[C@H]1n1ccc(=O)[nH]c1=O (single isomer, unassigned) [1.18 (peak 2)] | 0.089 | > 25 | – | – |
| C#C[C@@]1(O)[C@H](O)[C@@H](COP(=O)(N[C@@H](C)C(=O)OC)Oc2ccccc2)O[C@H]1n1ccc(=O)[nH]c1=O (single isomer, unassigned) [1.35 (peak 2)] | 0.194 | > 25 | – | – |
| C#C[C@@]1(O)[C@H](O)[C@@H](COP(=O)(N[C@@H](C)C(=O)OCC(C)(C)C)Oc2ccccc2)O[C@H]1n1ccc(=O)[nH]c1=O (single isomer, unassigned) [1.33 (peak 1)] | – | – | 0.081 | CC50 [3]: 19700 nM |
| C#C[C@@]1(O)[C@H](O)[C@@H](COP(=O)(NCCOC(=O)c2ccccc2)Oc2ccccc2)O[C@H]1n1ccc(=O)[nH]c1=O (single isomer, unassigned) [1.18 (peak 1)] | – | – | 0.08 | CC50 [3]: > 25000 nM |
| C#C[C@@]1(O)[C@H](O)[C@@H](COP(=O)(N[C@@H](C)C(=O)OCC(C)(C)OC)Oc2ccccc2)O[C@H]1n1ccc(=O)[nH]c1=O (single isomer, unassigned) [1.32 (peak 1)] | – | – | 0.53 | CC50 [3]: > 25000 nM |
| C#C[C@@]1(O)[C@H](O)[C@@H](COP(=O)(N[C@@H](CC(C)C)C(=O)OC(C)C)Oc2ccccc2)O[C@H]1n1ccc(=O)[nH]c1=O (single isomer, unassigned) [1.23 (peak 1)] | – | – | 2.72 | CC50 [3]: > 25000 nM |
| C#C[C@]1(O)[C@H](n2ccc(=O)[nH]c2=O)O[C@@](CO[P@@](=O)(N[C@@H](C)C(=O)OC(C)C)Oc2ccccc2)(N=[N+]=[N-])[C@H]1O [Example 1.26, (2S)-isopropyl 2-(((((2R,3S,4R,5R)-2-azido-5-(2,4-dioxo-3,4-dihydropyrimidin-1(2H)-yl)-4-ethynyl-3,4-dihydroxytetrahydrofuran-2-yl)methoxy)(phenoxy)phosphoryl)amino)propanoate] | 1.44 | > 25 | – | – |
| C#C[C@@]1(O)[C@H](O)[C@@H](COP(=O)(N[C@@H](C)C(=O)O[C@H](C)CC)Oc2ccccc2)O[C@H]1n1ccc(=O)[nH]c1=O (single isomer, unassigned) [1.15 (peak 1)] | – | – | 0.172 | CC50 [3]: > 25000 nM |
| C#C[C@@]1(O)[C@H](O)[C@@H](COP(=O)(N[C@@H](C)C(=O)OC(C)C)Oc2ccccc2)O[C@H]1n1ccc(N)nc1=O (single isomer, unassigned) [1.30 (peak 2)] | 54.3 | > 25 | – | – |
| C#C[C@@]1(O)[C@H](O)[C@@H](COP(=O)(N[C@@H](CC(C)C)C(=O)OC(C)C)Oc2ccccc2)O[C@H]1n1ccc(=O)[nH]c1=O (single isomer, unassigned) [1.23 (peak 2)] | – | > 25 | 0.305 | – |
| C#C[C@@]1(O)[C@H](O)[C@@H](COP(=O)(N[C@@H](C)C(=O)OCOC(C)=O)Oc2ccccc2)O[C@H]1n1ccc(=O)[nH]c1=O (single isomer, unassigned) [1.17 (peak 2)] | 9.09 | > 25 | – | – |

| Structure (SMILES) | EC50 [1, 4] [µM] | CC50 [2] [µM] | EC50 ([1]; read-out: HCV GT1b EC50) [µM] | further results |
| --- | --- | --- | --- | --- |
| C#C[C@@]1(O)[C@H](O)[C@@H](COP(=O)(N[C@@H](CC)C(=O)OC(C)C)Oc2ccccc2)O[C@H]1n1ccc(=O)[nH]c1=O (single isomer, unassigned) [1.38 (peak 1)] | – | – | 0.37 | CC50 [3]: > 25000 nM |
| C#C[C@@]1(O)[C@H](O)[C@@H](COP(=O)(N[C@@H](C)C(=O)OCC)Oc2ccccc2)O[C@H]1n1ccc(=O)[nH]c1=O (single isomer, unassigned) [1.36 (peak 2)] | 0.096 | > 25 | – | – |
| C#C[C@@]1(O)[C@H](O)[C@@H](COP(=O)(N[C@@H](C)C(=O)OCC(C)(C)OC)Oc2ccccc2)O[C@H]1n1ccc(=O)[nH]c1=O (single isomer, unassigned) [1.32 (peak 2)] | – | > 25 | 0.182 | – |
| C#C[C@@]1(O)[C@H](O)[C@@H](COP(=O)(NC(C)(C)C(=O)OC(C)C)Oc2ccccc2)O[C@H]1n1ccc(=O)[nH]c1=O (single isomer, unassigned) [1.39 (peak 2)] | – | > 25 | 0.047 | – |
| C#C[C@@]1(O)[C@H](O)[C@@H](COP(=O)(N[C@@H](C)C(=O)OC(CC)CC)Oc2ccccc2)O[C@H]1n1ccc(=O)[nH]c1=O (single isomer, unassigned) [1.16 (peak 2)] | – | > 25 | 0.056 | – |
| C#C[C@@]1(O)[C@H](O)[C@@H](COP(=O)(N[C@@H](C)C(=O)O[C@H](C)CC)Oc2ccccc2)O[C@H]1n1ccc(=O)[nH]c1=O (single isomer, unassigned) [1.15 (peak 2)] | – | > 25 | 0.029 | – |
| C#C[C@@]1(O)[C@H](O)[C@@H](COP(=O)(N[C@@H](CC)C(=O)OC(C)C)Oc2ccccc2)O[C@H]1n1ccc(=O)[nH]c1=O (single isomer, unassigned) [1.38 (peak 2)] | 0.54 | > 25 | – | – |
| C#C[C@@]1(O)[C@H](O)[C@@H](COP(=O)(N[C@@H](C)C(=O)O[C@@H](C)CC)Oc2ccccc2)O[C@H]1n1ccc(=O)[nH]c1=O (single isomer, unassigned) [1.13 (peak 2)] | – | > 25 | 0.025 | – |
| C#C[C@@]1(O)[C@H](O)[C@@H](COP(=O)(N[C@@H](C)C(=O)OC2CCC2)Oc2ccccc2)O[C@H]1n1ccc(=O)[nH]c1=O (single isomer, unassigned) [1.11 (peak 2)] | 0.058 | > 25 | – | – |
| C#C[C@@]1(O)[C@H](O)[C@@H](COP(=S)(N[C@@H](C)C(=O)OC(C)C)Oc2ccccc2)O[C@H]1n1ccc(=O)[nH]c1=O (stereo partly drawn) [Example 1.19, (2S)-isopropyl 2-(((((2R,3R,4R,5R)-5-(2,4-dioxo-3,4-dihydropyrimidin-1(2H)-yl)-4-ethynyl-3,4-dihydroxytetrahydrofuran-2-yl)methoxy)(phenoxy)phosphorothioyl)amino)propanoate] | 0.036 | – | – | CC50 at 3 days [2]: > 25000 nM |
| C#C[C@@]1(O)[C@H](OC(C)=O)[C@@H](COP(=O)(N[C@@H](C)C(=O)OC(C)C)Oc2ccccc2)O[C@H]1n1ccc(=O)[nH]c1=O (stereo partly drawn) [Example 1.21, (2S)-isopropyl 2-(((((2R,3R,4R,5R)-3-acetoxy-5-(2,4-dioxo-3,4-dihydropyrimidin-1(2H)-yl)-4-ethynyl-4-hydroxytetrahydrofuran-2-yl)methoxy)(phenoxy)phosphoryl)amino)propanoate] | 0.067 | > 25 | – | – |
| C#C[C@@]1(O)[C@H](O)[C@@H](COP(=O)(N[C@@H](C)C(=O)OC2CCOCC2)Oc2ccccc2)O[C@H]1n1ccc(=O)[nH]c1=O (single isomer, unassigned) [1.14 (peak 2)] | – | > 25 | 0.459 | – |
| C#C[C@@]1(O)[C@H](O)[C@@H](COP(=O)(N[C@@H](Cc2ccccc2)C(=O)OC(C)C)Oc2ccccc2)O[C@H]1n1ccc(=O)[nH]c1=O (single isomer, unassigned) [1.10 (peak 2)] | – | > 25 | 0.023 | – |
| C#C[C@@]12OC(=O)O[C@@H]1[C@@H](COP(=O)(N[C@@H](C)C(=O)OC(C)C)Oc1ccccc1)O[C@H]2n1ccc(=O)[nH]c1=O (stereo partly drawn) [Example 1.22, (2S)-isopropyl 2-(((((3aR,4R,6R,6aR)-6-(2,4-dioxo-3,4-dihydropyrimidin-1(2H)-yl)-6a-ethynyl-2-oxotetrahydrofuro[3,4-d][1,3]dioxol-4-yl)methoxy)(phenoxy)phosphoryl)amino)propanoate] | 0.108 | > 25 | – | – |
| C#C[C@@]1(O)[C@H](O)[C@@H](COP(=O)(NC(C)(C)C(=O)OCC)Oc2ccccc2)O[C@H]1n1ccc(=O)[nH]c1=O (single isomer, unassigned) [1.37 (peak 2)] | 0.478 | > 25 | – | – |
| C#C[C@@]1(O)[C@H](O)[C@@H](COP(=O)(N[C@@H](C)C(=O)OC(C)C)Oc2ccccc2)O[C@H]1n1ccc(=O)[nH]c1=O (single isomer, unassigned) [1.25 (peak 1)] | 0.358 | > 25 | – | – |
| C#C[C@@]1(O)[C@H](O)[C@@H](COP(=O)(N[C@@H](C)C(=O)OCC(C)(C)C)Oc2ccccc2)O[C@H]1n1ccc(=O)[nH]c1=O (single isomer, unassigned) [1.33 (peak 2)] | – | > 25 | 0.994 | – |
